How the values were obtained:
[1] = tested on: AKT protein phosphorylated on serine 473 (P-AKT-S473) in PC3 human prostate carcinoma cells; experiment: pAKT expression in PC3 cells measured by MSD Multi-spot Biomarker Detection (Test B); type: cell-based; settings: PC-3, inhibition of AKT Ser473 phosphorylation, 1 to 2 h incubation, MSD sandwich immunoassay, absolute IC50, mean of two experiments
Experimental: (§1) The inhibitory activity of the molecules on AKT phosphorylation is measured either by western blotting using the technique described below, or by the MSD Multi-spot Biomarker detection technique from Meso Scale Discovery also described below.
Where appropriate, the activity of the products is translated into approximately IC50, obtained from a dose-response curve of various concentrations tested and representing the dose giving 50% of specific inhibition (absolute IC50). Two independent experiments make it possible to calculate the mean of the IC50s. Study of pAKT expression in PC3 human prostate carcinoma cells measured by the MSD Multi-spot Biomarker Detection technique from Meso Scale Discovery (Test B): This test is based on measuring the expression of the AKT protein phosphorylated on serine 473 (P-AKT-S473), in the PC3 human prostate carcinoma line, by means of the technique based on a sandwich immunoassay using the MSD Multi-spot Biomarker Detection kit from Meso Scale Discovery: phospho-Akt (Ser473) whole cell lysate kit (#K151 CAD) or phospho-Akt (Ser473)/Total Akt whole cell lysate kit (#K151OOD).
The primary antibody specific for P-AKT-5473 (Kit #K151 CAD) is coated onto an electrode in each well of the 96-well plates of the MSD kit: after the addition of a protein lysate to each well, the signal is visualised by adding a secondary detection antibody labelled with an electrochemoluminescent compound. The procedure followed is that described in the kit.
(§2) On day 1, the PC3 cells are seeded into 96-well plates (TPP, #92096) at the concentration of 35 000 cells/well in 200 μl of DMEM medium (DMEM Gibco #11960-044) containing 10% of foetal calf serum (FCS Gibco, #10500-056) and 1% glutamine (L-Glu Gibco #25030-024), and incubated at 37° C., 5% CO2, overnight.
(§3) On day 2, the cells are incubated in the presence or absence of the test products for 1 to 2 h at 37° C. in the presence of 5% of CO2. The molecules, diluted in dimethyl sulphoxide (DMSO Sigma #D2650), are added from a 20-times concentrated stock solution, the final percentage of DMSO being 0.1%. The molecules are tested either at a single concentration of less than or equal to 10 μM, or at increasing concentrations in a range that can extend from less than 1 nM to 10 μM.
After this incubation, the cells are lysed for the preparation of the proteins. For this, after the culture medium has been drawn off, […] of complete Tris Lysis Buffer of the MSD kit containing the protease and phosphatase inhibitor solutions are added to the wells and the cells are lysed for 1 h at 4° C. with shaking At this stage, the plates containing the lysates can be frozen at −20° C. or at −80° C.
The wells of the 96-well plates of the MSD kit are saturated for 1 h at ambient temperature with the blocking solution of the MSD kit. Four washes are carried out with 150 μl of Tris Wash Buffer of the MSD kit. The lysates previously prepared are transferred into the 96-well multi-spot plates of the MSD kit and incubated for 1 h at ambient temperature, with shaking Four washes are carried out with 150 μl of Tris Wash Buffer of the MSD kit. 25 μl of the MSD sulpho-tag detection antibody solution are added to the wells and incubated for 1 h at ambient temperature, with shaking Four washes are carried out with 150 μl of Tris Wash Buffer of the MSD kit. 150 μl of Read Buffer of the MSD kit are added to the wells and the plates are read immediately on the 512400 instrument from Meso Scale Discovery.
The instrument measures a signal for each well. Wells without cells and containing the lysis buffer serve to determine the background noise that will be subtracted from all the measurements (min). The wells containing cells in the absence of product and in the presence of 0.1% DMSO are considered to be the 100% signal (max). The percentage inhibition is calculated for each concentration of test product according to the following formula: (1−((test−min)/(max−min)))×100. […]

[2] = tested on: AKT protein phosphorylated on serine 473 in PC3 human prostate carcinoma cells; experiment: pAKT expression in PC3 cells measured by western blotting (test A); type: cell-based; settings: PC-3, inhibition of AKT Ser473 phosphorylation, 1 to 2 hours incubation, absolute IC50, mean of two experiments
Experimental: as §1
Study of pAKT expression in PC3 human prostate carcinoma cells measured by western blotting (test A):
This test is based on measuring the expression of the AKT protein phosphorylated on serine 473. The phosphorylation of AKT (pAKT) is measured by western blotting in the PC3 human prostate carcinoma line (ATCC CRL-1435), using an antibody that specifically recognises pAKT-5473.
as §2, with “6-well” for “96-well”, “#92006)” for “#92096)”, “0.8×10^6” for “35 000”, “1800” for “200”, “(SVF” for “(FCS”
as §3, with “2 hours” for “2 h”, “5%” for “5% of”, “a 10-times” for “a 20-times”
After this incubation, the cells are lysed for the preparation of the proteins. After the culture medium has been drawn off, the cells are rinsed with 1 ml of PBS (DPBS Gibco, #14190-094), recovered by scraping in 200 μl of complete HNTG buffer and transferred into a 96-well plate (Greiner #651201), and lysed for 1 h on ice. The HNTG buffer is composed of the following mixture: 50 mM hepes, 150 mM NaCl, 1% triton, 10% glycerol, with extemporaneous addition of one Mini Protease Inhibitor Cocktail tablet (Roche 1836153) and of one Phosphatase Inhibitor Cocktail tablet (Roche 104906837001) per 10 ml of buffer.
The lysate is centrifuged for 10 min at 6000 rpm. 155 μl of supernatant are recovered. 150 μl are incubated for denaturation for 5 min at 95° C. in the presence of 4× NuPAGE LDS Sample Buffer diluted 4-fold (InVitrogen ref NP0007) and of 10× NuPAGE Sample Reducing Agent diluted 10-fold (InVitrogen ref NP0009). These samples are then frozen at −20° C. 5 μl are assayed by the microBCA technique according to the technical bulletin of the MicroBCA Protein Assay Kit (Pierce #23235).
For protein separation, 20 μg of proteins are loaded on to a NU-PAGE 4-12% Bis Tris Gel 12 well (InVitrogen ref NP0322BOX) and the migration is carried out for 1 h 30 in 20×NU-PAGE MOPS SDS Running Buffer diluted 20-fold (InVitrogen ref NP0001), at 150 volts.
The gel is then transferred onto an Invitrolon PVDF membrane (Invitrogen #LC2007) permeabilised beforehand for a few seconds in ethanol (Ethanol Fischer Scientific #E/0600DF/15).
The transfer is carried out in a Biorad tank at 30 volts overnight or at 60 volts for 3 hours, in the presence of 20× NUPAGE Transfer Buffer diluted 20-fold (InVitrogen ref NP0006).
The membrane is then saturated in saturating solution composed of TBS (10× Tris Buffered Saline, Sigma #T5912, diluted 10-fold), 0.1% Tween 20 (Sigma #P5927) and 3% BSA (Bovine Serum Albumin Fraction V, Sigma #A4503) for 6 h after overnight transfer or else for 1 h after transfer for a period of 3 h.
The primary antibodies are diluted to 1/1000th for the anti-phospho AKT-Ser473 antibody (193H2, rabbit monoclonal, cat#4058 from Cell Signaling Technology) Abcam), in saturating solution composed of […], 0.1% Tween 20 and 3% BSA, and then shaken overnight at 4° C.
Two rinses for 5 min in washing solution composed of TBS and 0.1% Tween 20 are carried out before hybridisation of the secondary antibodies. […]

IC50 [1] [µM] | IC50 [2] [µM] | Compound
0.085 | 1.34 | O=c1cc(N2CCOCC2)nc(Cc2nc3ccc(Br)cc3[nH]2)[nH]1 [Example 3, 2-[(5-bromo-1H-benzimidazol-2-yl)methyl]-6-(morpholin-4-yl)pyrimidin-4(3H)-one]
0.049 | 0.38 | O=c1cc(N2CCOCC2)nc(Cc2nc3ccc(F)cc3o2)[nH]1 [Example 6, 2-[(6-fluoro-1,3-benzoxazol-2-yl)methyl]-6-(morpholin-4-yl)pyrimidin-4(3H)-one]
 | 0.388 | O=c1cc(N2CCOCC2)nc(Cc2nc3ccccc3o2)[nH]1 [Example 2, 2-(1,3-benzoxazol-2-ylmethyl)-6-(morpholin-4-yl)pyrimidin-4(3H)-one]
0.026 | 0.903 | O=c1cc(N2CCOCC2)nc(Cc2nc3cc(F)ccc3o2)[nH]1 [Example 7, 2-[(5-fluoro-1,3-benzoxazol-2-yl)methyl]-6-(morpholin-4-yl)pyrimidin-4(3H)-one]
0.027 | 0.713 | Cn1c(Cc2nc(N3CCOCC3)cc(=O)[nH]2)nc2ccccc21 [Example 10, 2-[(1-methyl-1H-benzimidazol-2-yl)methyl]-6-(morpholin-4-yl)pyrimidin-4(3H)-one]
0.041 | 0.298 | O=c1cc(N2CCOCC2)nc(Cc2nc3ccc(F)cc3[nH]2)[nH]1 [Example 1, 2-[(5-fluoro-1H-benzimidazol-2-yl)methyl]-6-(morpholin-4-yl)pyrimidin-4(3H)-one]
 | 1.01 | O=c1cc(N2CCOCC2)nc(Cc2nc3cc(F)c(F)cc3[nH]2)[nH]1 [Example 5, 2-[(5,6-difluoro-1H-benzimidazol-2-yl)methyl]-6-(morpholin-4-yl)pyrimidin-4(3H)-one]
0.032 |  | Cn1c(Cc2nc(N3CCOCC3)cc(=O)[nH]2)nc2cccc(Br)c21 [Example 41, 2-[(7-Bromo-1-methyl-1H-benzimidazol-2-yl)methyl]-6-(morpholin-4-yl)pyrimidin-4(3H)-one]
0.144 |  | O=c1cc(N2CCOCC2)nc(Cc2nc3cc(F)cc(F)c3[nH]2)[nH]1 [Example 31, 2-[(5,7-difluoro-1H-benzimidazol-2-yl)methyl]-6-(morpholin-4-yl)pyrimidine-4(3H)-one]
0.016 |  | Cn1c(Cc2nc(N3CCOCC3)cc(=O)[nH]2)nc2cc(F)ccc21 [Example 11, 2-[(5-fluoro-1-methyl-1H-benzimidazol-2-yl)methyl]-6-(morpholin-4-yl)pyrimidin-4(3H)-one]

From patent US8507483B2, “1H-pyrimidin-2-one derivatives, preparation thereof and pharmaceutical use thereof as inhibitors of AKT (PKB) phosphorylation” (Sanofi, priority 2009, dated 2013)
